The conditions of series [1]: mouse, in vivo.
For series [2] the following is noted: mouse, in vivo, po.
For series [3], the system named is F. tularensis SCHU-S4. Put plainly: microbe, parasite or virus in culture. The format is cell-based. Particulars: Francisella tularensis, SCHUS4.
The subject of series [4] is F. tularensis SCHU-S4. Nature of the series: microbe, parasite or virus in culture. Type of series: cell-based. The following applies: Francisella tularensis, SCHUS4. This is another data set of the same source.
For series [5] the following is noted: mouse, in vivo, 50 mg/kg.
Another series in a line: in vivo. Particulars: female, Balb/c, mouse.
A further series has as its system B. pseudomallei K96243. Put plainly: microbe, parasite or virus in culture. Type of series: cell-based. The following applies: Burkholderia pseudomallei.

Values after ≈ are worked out from the molar mass of the structure shown. Like-named read-outs stand apart in the source and are kept apart here.

As to `C[C@H]1c2cccc(O)c2C(=O)C2=C(O)[C@]3(O)C(=O)C(C(N)=O)=C(O)[C@@H](N(C)C)[C@@H]3[C@@H](O)[C@@H]21` [Free doxycycline, doxycycline hyclate], in series [1], the “Effect on body weight” value is recorded as “strong indication for doxycycline-based weight loss”. In addition, the Necropsy findings entry in series [1] (ip) was “peritoneal adhesions involving spleen, pancreas, intestines and kidney”. In addition, the Necropsy findings result in series [1] (po) is “two mice had slightly rounded edges to the lobes of the liver”. Also, in series [2], the “Mean weight gain on Day 36” value is recorded as 1.7% and the “Mean weight loss of starting weight by Day 8” value (“Mean weight loss” for short) is 5.2%. In the series with F. tularensis SCHU-S4 [3], this molecule returned an MIC of 0.5 µg/mL (≈ 1.13 µM). The MBC against F. tularensis SCHU-S4 [4] was > 64 µg/mL.
As for `C[C@H]1COc2c(N3CCN(C)CC3)c(F)cc3c(=O)c(C(=O)O)cn1c23` [Free levofloxacin, levofloxacin], in series [1], the “Effect on body weight” value is listed as “minimal”. Also, in series [2], the “Mean weight gain on Day 36” value is given as 3.2%. Besides, the “Mean weight loss” value in series [2] is on record as 3.3%. Moreover, the AUC in series [5] (ip) was determined as 122.1861 µg/mL/h; in series [5] (po), 119.6124 µg/mL/h. For the same molecule, the Tmax (as a rule, the time at which the peak concentration occurs) in series [5] (ip) worked out at 18 min; in series [5] (po) it was 36 min. Further, the Cmax (in general, the maximum level reached in the sampled fluid or tissue) in the series “in vivo” (ip, 50 mg/kg) was 50200 ng/mL; in “in vivo” (ip, 100 mg/kg) it was 2100 ng/mL; in “in vivo” (po, 50 mg/kg), 46100 ng/mL.
Turning to `O=C(O)c1cn(C2CC2)c2cc(N3CCNCC3)c(F)cc2c1=O` [Free ciprofloxacin, ciprofloxacin], the MBC against B. pseudomallei K96243 was found to be 16 µg/mL (≈ 48.3 µM). In addition, the “Effect on body weight” value in series [1] is “significantly induced weight loss”. In series [2], the “Mean weight gain on Day 36” value was determined as 2.4% and the “Mean weight loss” value was found to be 4.4%.
